Experimental data published in patent US20200239530A1, “COMPOUNDS AND METHODS OF MODULATING PROTEIN DEGRADATION” (Vividion Therapeutics, Inc., priority 2017, published 2020).
Where two headings read alike, the source gives them in different places. Each block holds one compound with its values, some of them ahead of it.

Key:
Assay in all cases: Cysteine liganding, probe competition
Assay type in all cases: binding
UniProt Q8N653 = biological target: T1, UniProt Q8N653 (Homo sapiens, UniProt Q8N653); settings: read-out: percent inhibition
T1 construct: Cells were resuspended in cold PBS on ice and sonicated with a probe sonicator to achieve lysis; endogenous in cells
Excerpt: (§1) The following 96-well sample prep protocol was used for sample preparation.

UniProt Q9HAT8 = biological target: T2, UniProt Q9HAT8 (Homo sapiens, UniProt Q9HAT8)
T2 construct: 200 μL of lysate containing 5 mg/ml proteome was treated with 2 μL of 100× compound stock; endogenous in cells
T2 sequence (Q9HAT8 whole entry, change not shown): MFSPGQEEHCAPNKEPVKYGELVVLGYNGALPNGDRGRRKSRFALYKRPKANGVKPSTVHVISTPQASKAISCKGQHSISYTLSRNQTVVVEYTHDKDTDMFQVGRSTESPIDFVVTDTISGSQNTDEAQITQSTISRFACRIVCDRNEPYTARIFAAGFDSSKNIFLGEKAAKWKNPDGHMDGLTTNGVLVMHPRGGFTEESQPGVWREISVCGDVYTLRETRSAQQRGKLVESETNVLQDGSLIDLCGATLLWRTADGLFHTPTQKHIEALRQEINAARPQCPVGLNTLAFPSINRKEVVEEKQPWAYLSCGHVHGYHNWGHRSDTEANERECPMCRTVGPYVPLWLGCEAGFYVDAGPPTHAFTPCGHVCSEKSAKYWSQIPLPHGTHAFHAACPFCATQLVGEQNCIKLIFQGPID
Excerpt: as §1

UniProt Q86YT6 = biological target: T3, UniProt Q86YT6 (Homo sapiens, UniProt Q86YT6); settings: read-out: percent inhibition
T3 construct: Cells were resuspended in cold PBS on ice and sonicated with a probe sonicator to achieve lysis; endogenous in cells
T3 sequence (Q86YT6 whole entry, change not shown): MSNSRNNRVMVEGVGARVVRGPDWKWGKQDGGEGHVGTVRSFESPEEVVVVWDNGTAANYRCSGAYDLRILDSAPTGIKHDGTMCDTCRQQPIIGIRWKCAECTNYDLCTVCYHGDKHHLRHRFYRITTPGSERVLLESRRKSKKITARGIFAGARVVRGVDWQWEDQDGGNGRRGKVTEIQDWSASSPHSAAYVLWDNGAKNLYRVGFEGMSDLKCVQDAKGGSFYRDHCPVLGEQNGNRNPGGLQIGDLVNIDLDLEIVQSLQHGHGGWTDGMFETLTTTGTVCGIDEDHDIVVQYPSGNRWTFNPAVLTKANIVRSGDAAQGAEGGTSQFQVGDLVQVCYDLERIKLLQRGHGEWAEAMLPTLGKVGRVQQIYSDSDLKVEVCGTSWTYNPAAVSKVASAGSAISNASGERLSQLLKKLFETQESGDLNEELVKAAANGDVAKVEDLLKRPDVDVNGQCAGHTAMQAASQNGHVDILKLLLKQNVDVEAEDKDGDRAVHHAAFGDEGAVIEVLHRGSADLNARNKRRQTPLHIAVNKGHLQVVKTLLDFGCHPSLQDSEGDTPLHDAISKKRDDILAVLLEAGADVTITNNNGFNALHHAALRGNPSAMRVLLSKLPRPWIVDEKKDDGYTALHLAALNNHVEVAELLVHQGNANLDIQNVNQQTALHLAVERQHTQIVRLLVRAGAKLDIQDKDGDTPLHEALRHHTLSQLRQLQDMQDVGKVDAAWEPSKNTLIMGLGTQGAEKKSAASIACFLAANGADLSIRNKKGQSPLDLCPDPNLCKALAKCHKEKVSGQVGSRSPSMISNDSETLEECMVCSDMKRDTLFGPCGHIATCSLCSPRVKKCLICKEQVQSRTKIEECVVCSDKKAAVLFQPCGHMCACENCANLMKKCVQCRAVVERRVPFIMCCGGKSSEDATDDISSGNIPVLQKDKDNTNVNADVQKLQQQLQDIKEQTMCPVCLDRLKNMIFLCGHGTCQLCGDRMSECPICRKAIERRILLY
Excerpt: as §1

UniProt Q13309 = biological target: T4, UniProt Q13309 (Homo sapiens, UniProt Q13309); settings: read-out: percent_inhibition
T4 construct: 200 μL of lysate containing 5 mg/ml proteome was treated with 2 μL of 100× compound stock; endogenous in cells
Excerpt: as §1

UniProt Q5VTB9 = biological target: T5, UniProt Q5VTB9 (Homo sapiens, UniProt Q5VTB9); settings: read-out: percent_inhibition
T5 construct: 200 μL of lysate containing 5 mg/ml proteome was treated with 2 μL of 100× compound stock; endogenous in cells
Excerpt: as §1

UniProt Q9UPQ7 = biological target: T6, UniProt Q9UPQ7 (Homo sapiens, UniProt Q9UPQ7)
T6 construct: 200 μL of lysate containing 5 mg/ml proteome was treated with 2 μL of 100× compound stock; endogenous in cells
T6 sequence (Q9UPQ7 whole entry, change not shown): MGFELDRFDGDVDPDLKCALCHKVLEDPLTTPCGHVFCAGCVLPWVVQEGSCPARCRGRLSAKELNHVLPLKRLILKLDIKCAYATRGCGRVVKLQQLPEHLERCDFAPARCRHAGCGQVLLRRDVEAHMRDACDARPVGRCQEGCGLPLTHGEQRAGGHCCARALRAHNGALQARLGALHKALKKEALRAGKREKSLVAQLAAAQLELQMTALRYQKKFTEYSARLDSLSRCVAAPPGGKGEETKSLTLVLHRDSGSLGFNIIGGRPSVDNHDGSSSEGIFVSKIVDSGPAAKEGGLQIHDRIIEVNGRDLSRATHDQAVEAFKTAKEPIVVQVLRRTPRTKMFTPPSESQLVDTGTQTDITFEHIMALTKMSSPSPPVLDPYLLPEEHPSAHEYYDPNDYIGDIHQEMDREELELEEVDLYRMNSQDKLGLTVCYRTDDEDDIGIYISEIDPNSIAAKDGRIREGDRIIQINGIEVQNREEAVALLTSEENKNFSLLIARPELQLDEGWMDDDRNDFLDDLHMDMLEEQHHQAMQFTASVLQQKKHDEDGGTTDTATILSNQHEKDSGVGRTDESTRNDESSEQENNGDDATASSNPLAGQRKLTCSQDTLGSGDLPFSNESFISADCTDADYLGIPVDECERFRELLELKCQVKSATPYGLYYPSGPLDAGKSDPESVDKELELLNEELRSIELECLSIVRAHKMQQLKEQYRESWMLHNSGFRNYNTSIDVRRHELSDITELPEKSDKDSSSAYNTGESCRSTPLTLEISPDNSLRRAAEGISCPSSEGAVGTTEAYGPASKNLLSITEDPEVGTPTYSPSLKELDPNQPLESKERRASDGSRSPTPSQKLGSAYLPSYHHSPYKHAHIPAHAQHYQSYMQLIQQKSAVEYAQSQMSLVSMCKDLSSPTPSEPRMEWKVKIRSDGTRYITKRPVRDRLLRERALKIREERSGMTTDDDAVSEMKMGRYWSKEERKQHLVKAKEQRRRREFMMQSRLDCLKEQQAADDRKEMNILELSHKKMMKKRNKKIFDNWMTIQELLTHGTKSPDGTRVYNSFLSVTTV
Excerpt: as §1

UniProt Q6ZMN7 = biological target: T7, UniProt Q6ZMN7 (Homo sapiens, UniProt Q6ZMN7); settings: read-out: KB05_500 uM_percent_inhibition
T7 construct: 200 μL of lysate containing 5 mg/ml proteome was treated with 2 μL of 100× compound stock; endogenous in cells
Excerpt: as §1

UniProt P19474 = biological target: T8, UniProt P19474 (Homo sapiens, UniProt P19474); settings: read-out: KB05_100 uM_percent_inhibition
T8 construct: 200 μL of lysate containing 5 mg/ml proteome was treated with 2 μL of 100× compound stock; endogenous in cells
Excerpt: as §1

UniProt Q96EP0 = biological target: T9, UniProt Q96EP0 (Homo sapiens, UniProt Q96EP0); settings: 500 uM
T9 construct: 200 μL of lysate containing 5 mg/ml proteome was treated with 2 μL of 100× compound stock; endogenous in cells
Excerpt: as §1

UniProt Q9C040 = biological target: T10, UniProt Q9C040 (Homo sapiens, UniProt Q9C040)
T10 construct: 200 μL of lysate containing 5 mg/ml proteome was treated with 2 μL of 100× compound stock; endogenous in cells
T10 sequence (Q9C040 whole entry, change not shown): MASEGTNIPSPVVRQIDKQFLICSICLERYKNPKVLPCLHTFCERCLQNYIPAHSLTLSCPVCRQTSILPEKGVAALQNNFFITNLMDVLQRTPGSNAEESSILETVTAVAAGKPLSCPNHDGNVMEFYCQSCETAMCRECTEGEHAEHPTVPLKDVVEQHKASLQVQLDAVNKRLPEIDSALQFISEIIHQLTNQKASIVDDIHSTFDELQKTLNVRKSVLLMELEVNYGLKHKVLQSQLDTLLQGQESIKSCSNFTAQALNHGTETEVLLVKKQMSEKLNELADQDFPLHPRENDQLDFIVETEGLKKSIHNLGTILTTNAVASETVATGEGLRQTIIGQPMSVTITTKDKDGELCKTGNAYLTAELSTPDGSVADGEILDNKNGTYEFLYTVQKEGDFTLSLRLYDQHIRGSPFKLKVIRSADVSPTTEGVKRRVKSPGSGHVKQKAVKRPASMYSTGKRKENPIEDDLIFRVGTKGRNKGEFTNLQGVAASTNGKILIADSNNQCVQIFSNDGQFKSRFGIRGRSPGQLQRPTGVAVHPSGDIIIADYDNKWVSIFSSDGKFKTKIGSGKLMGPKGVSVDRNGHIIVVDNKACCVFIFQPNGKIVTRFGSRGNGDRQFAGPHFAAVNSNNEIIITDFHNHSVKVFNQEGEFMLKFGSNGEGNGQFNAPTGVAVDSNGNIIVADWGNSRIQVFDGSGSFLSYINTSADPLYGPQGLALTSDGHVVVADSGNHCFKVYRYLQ
Excerpt: as §1

UniProt P51948 = biological target: T11, UniProt P51948 (Homo sapiens, UniProt P51948); settings: read-out: percent inhibition
T11 construct: Cells were resuspended in cold PBS on ice and sonicated with a probe sonicator to achieve lysis; endogenous in cells
T11 sequence (P51948 whole entry, change not shown): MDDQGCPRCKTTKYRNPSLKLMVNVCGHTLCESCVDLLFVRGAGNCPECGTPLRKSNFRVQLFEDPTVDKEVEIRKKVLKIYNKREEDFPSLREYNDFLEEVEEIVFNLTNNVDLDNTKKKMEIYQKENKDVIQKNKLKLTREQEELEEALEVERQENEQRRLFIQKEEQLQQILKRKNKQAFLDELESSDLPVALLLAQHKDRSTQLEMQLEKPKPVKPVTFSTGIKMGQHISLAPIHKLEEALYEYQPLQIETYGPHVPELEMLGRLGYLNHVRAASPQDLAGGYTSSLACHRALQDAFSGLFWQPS
Excerpt: as §1

UniProt E7ERA6 = biological target: T12, UniProt E7ERA6 (Homo sapiens, UniProt E7ERA6)
T12 construct: 200 μL of lysate containing 5 mg/ml proteome was treated with 2 μL of 100× compound stock; endogenous in cells
T12 sequence (E7ERA6 whole entry, change not shown): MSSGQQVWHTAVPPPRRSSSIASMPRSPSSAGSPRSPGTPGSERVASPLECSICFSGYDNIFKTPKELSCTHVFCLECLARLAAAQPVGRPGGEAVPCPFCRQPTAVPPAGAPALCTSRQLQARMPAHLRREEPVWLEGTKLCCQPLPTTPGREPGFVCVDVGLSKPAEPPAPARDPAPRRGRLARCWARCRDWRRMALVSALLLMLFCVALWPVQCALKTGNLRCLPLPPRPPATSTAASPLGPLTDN
Excerpt: as §1

UniProt Q6Q0C0 = biological target: T13, UniProt Q6Q0C0 (Homo sapiens, UniProt Q6Q0C0)
T13 construct: 200 μL of lysate containing 5 mg/ml proteome was treated with 2 μL of 100× compound stock; endogenous in cells
T13 sequence (Q6Q0C0 1-670): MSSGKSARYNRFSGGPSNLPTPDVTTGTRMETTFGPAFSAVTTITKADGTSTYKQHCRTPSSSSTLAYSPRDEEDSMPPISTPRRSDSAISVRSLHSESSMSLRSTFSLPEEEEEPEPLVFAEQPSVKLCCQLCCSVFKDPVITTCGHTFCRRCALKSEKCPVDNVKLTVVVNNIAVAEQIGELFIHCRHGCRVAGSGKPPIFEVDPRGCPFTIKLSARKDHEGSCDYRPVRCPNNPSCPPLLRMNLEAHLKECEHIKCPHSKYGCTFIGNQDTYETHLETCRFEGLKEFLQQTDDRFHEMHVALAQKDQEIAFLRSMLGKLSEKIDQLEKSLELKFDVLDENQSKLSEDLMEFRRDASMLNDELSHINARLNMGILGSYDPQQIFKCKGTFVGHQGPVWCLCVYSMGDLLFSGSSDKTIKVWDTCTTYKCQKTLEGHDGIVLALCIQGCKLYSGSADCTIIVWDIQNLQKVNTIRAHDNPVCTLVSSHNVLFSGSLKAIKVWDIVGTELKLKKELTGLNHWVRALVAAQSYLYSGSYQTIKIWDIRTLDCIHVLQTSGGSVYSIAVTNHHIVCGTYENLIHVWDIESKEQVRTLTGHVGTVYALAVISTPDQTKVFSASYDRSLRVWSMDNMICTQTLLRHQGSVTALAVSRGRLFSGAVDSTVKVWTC
Excerpt: as §1

UniProt Q15366 = biological target: T14, UniProt Q15366 (Homo sapiens, UniProt Q15366); settings: read-out: KB02_500 uM_percent_inhibition
T14 construct: Cells were resuspended in cold PBS on ice and sonicated with a probe sonicator to achieve lysis; endogenous in cells
Excerpt: as §1

UniProt Q7Z6E9 = biological target: T15, UniProt Q7Z6E9 (Homo sapiens, UniProt Q7Z6E9); settings: read-out: KB02_100 uM_percent_inhibition
T15 construct: 200 μL of lysate containing 5 mg/ml proteome was treated with 2 μL of 100× compound stock; endogenous in cells
Excerpt: as §1

UniProt Q13114 = biological target: T16, UniProt Q13114 (Homo sapiens, UniProt Q13114); settings: read-out: percent_inhibition
T16 construct: 200 μL of lysate containing 5 mg/ml proteome was treated with 2 μL of 100× compound stock; endogenous in cells
Excerpt: as §1

UniProt Q9NQ86 = biological target: T17, UniProt Q9NQ86 (Homo sapiens, UniProt Q9NQ86)
T17 construct: 200 μL of lysate containing 5 mg/ml proteome was treated with 2 μL of 100× compound stock; endogenous in cells
T17 sequence (Q9NQ86 whole entry, change not shown): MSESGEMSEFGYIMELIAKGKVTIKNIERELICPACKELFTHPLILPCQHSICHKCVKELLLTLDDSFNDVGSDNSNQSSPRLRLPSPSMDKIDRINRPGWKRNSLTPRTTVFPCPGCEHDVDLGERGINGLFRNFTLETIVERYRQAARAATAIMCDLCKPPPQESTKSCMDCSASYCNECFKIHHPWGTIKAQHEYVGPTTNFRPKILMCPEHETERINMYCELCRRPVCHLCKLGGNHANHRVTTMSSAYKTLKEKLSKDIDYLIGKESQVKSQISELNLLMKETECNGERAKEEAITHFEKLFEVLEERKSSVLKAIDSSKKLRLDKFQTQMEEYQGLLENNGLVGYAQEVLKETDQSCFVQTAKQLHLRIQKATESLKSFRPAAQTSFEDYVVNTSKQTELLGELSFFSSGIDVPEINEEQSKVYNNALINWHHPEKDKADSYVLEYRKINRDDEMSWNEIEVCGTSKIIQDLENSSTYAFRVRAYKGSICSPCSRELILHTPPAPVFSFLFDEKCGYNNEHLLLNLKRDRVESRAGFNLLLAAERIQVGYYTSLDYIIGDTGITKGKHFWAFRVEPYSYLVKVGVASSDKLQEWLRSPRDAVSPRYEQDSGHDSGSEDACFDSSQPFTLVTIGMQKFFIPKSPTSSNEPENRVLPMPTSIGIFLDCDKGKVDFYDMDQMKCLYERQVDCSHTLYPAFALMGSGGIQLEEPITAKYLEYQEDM
Excerpt: as §1

UniProt Q7L0R7 = biological target: T18, UniProt Q7L0R7 (Homo sapiens, UniProt Q7L0R7)
T18 construct: 200 μL of lysate containing 5 mg/ml proteome was treated with 2 μL of 100× compound stock; endogenous in cells
T18 sequence (Q7L0R7 whole entry, change not shown): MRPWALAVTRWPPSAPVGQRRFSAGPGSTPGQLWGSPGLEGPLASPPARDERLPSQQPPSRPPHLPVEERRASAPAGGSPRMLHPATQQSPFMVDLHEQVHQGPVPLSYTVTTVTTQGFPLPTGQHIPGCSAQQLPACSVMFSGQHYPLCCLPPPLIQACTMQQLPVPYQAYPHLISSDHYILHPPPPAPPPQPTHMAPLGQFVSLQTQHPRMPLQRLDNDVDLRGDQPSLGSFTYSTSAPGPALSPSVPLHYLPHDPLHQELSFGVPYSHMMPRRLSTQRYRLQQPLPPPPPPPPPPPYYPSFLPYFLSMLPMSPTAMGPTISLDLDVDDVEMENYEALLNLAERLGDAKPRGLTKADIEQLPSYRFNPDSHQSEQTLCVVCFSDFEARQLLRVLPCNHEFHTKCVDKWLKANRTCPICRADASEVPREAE
Excerpt: as §1

UniProt O15344 = biological target: T19, UniProt O15344 (Homo sapiens, UniProt O15344); settings: 500 uM
T19 construct: Cells were resuspended in cold PBS on ice and sonicated with a probe sonicator to achieve lysis; endogenous in cells
Excerpt: as §1

UniProt P14373 = biological target: T20, UniProt P14373 (Homo sapiens, UniProt P14373); settings: 100 uM
T20 construct: 200 μL of lysate containing 5 mg/ml proteome was treated with 2 μL of 100× compound stock; endogenous in cells
Excerpt: as §1

UniProt O75382 = biological target: T21, UniProt O75382 (Homo sapiens, UniProt O75382); settings: 100 uM
T21 construct: 200 μL of lysate containing 5 mg/ml proteome was treated with 2 μL of 100× compound stock; endogenous in cells
Excerpt: as §1

UniProt Q9C019 = biological target: T22, UniProt Q9C019 (Homo sapiens, UniProt Q9C019); settings: 100 uM
T22 construct: 200 μL of lysate containing 5 mg/ml proteome was treated with 2 μL of 100× compound stock; endogenous in cells
Excerpt: as §1

UniProt Q15025 = biological target: T23, UniProt Q15025 (Homo sapiens, UniProt Q15025); settings: 100 uM
T23 construct: 200 μL of lysate containing 5 mg/ml proteome was treated with 2 μL of 100× compound stock; endogenous in cells
Excerpt: as §1

UniProt Q86XN8 = biological target: T24, UniProt Q86XN8 (Homo sapiens, UniProt Q86XN8); settings: 100 uM
T24 construct: Cells were resuspended in cold PBS on ice and sonicated with a probe sonicator to achieve lysis; endogenous in cells
Excerpt: as §1

UniProt Q86TM6 = biological target: T25, UniProt Q86TM6 (Homo sapiens, UniProt Q86TM6); settings: 100 uM
T25 construct: 200 μL of lysate containing 5 mg/ml proteome was treated with 2 μL of 100× compound stock; endogenous in cells
Excerpt: as §1

[1] = 100 uM, read-out: KB02_100 uM_percent_inhibition
[2] = 500 uM, read-out: KB02_500 uM_percent_inhibition

- inhibition at 100 µM (UniProt Q8N653): 11%
- inhibition at 100 µM (UniProt Q9HAT8; 100 uM, read-out: KB05_100 uM_percent_inhibition): 15%
- inhibition at 500 µM (UniProt Q9HAT8; 500 uM, read-out: KB05_500 uM_percent_inhibition): 63%
- inhibition at 100 µM (UniProt Q86YT6): 31%
- inhibition at 100 µM (UniProt Q13309): 10%
- inhibition at 100 µM (UniProt Q5VTB9): 2%
- KB05_100 uM_percent_inhibition (UniProt Q9UPQ7; 100 uM): 24%
- inhibition at 100 µM (UniProt Q9UPQ7; read-out: KB05_100 uM_percent_inhibition): 20%
- inhibition at 500 µM (UniProt Q6ZMN7): 1%
- inhibition at 100 µM (UniProt P19474): 39%
SMILES: C=CC(=O)N(c1ccccc1)c1ccc(Br)cc1 [KB05]

SMILES: COc1ccc2c(c1)CCCN2C(=O)CCl [KB02]
- percent_inhibition (UniProt Q96EP0): 24%
- inhibition at 100 µM (UniProt Q9C040; [1]): 20%
- inhibition at 500 µM (UniProt Q9C040; [2]): 32%
- inhibition at 100 µM (UniProt P51948): 3%
- percent_inhibition (UniProt E7ERA6; 500 uM): 38%
- inhibition at 500 µM (UniProt E7ERA6; read-out: percent_inhibition): 35%
- inhibition at 100 µM (UniProt Q6Q0C0; [1]): 3%
- inhibition at 500 µM (UniProt Q6Q0C0; [2]): 47%
- inhibition at 100 µM (UniProt Q6Q0C0; read-out: percent_inhibition): 1%
- inhibition at 500 µM (UniProt Q15366): 45%
- inhibition at 100 µM (UniProt Q7Z6E9): 23%
- inhibition at 100 µM (UniProt Q13114): 33%
- inhibition at 100 µM (UniProt Q9NQ86; [1]): 27%
- KB02_500 uM_percent_inhibition (UniProt Q9NQ86; 500 uM): 88%
- inhibition at 100 µM (UniProt Q7L0R7; 100 uM, read-out: percent_inhibition): 44%
- percent_inhibition (UniProt Q7L0R7; 500 uM): 42%
- inhibition at 500 µM (UniProt Q7L0R7; 500 uM, read-out: percent_inhibition): 41%
- percent inhibition (UniProt O15344): 24%

SMILES: O=C(CCl)Nc1cc(C(F)(F)F)cc(C(F)(F)F)c1 [KBO3]
- KB03_100 uM_percent_inhibition (UniProt P14373): 13%
- KB03_100 uM_percent_inhibition (UniProt O75382): 45%
- KB03_100 uM_percent_inhibition (UniProt Q9C019): 18%
- percent_inhibition (UniProt Q15025): 3%
- percent inhibition (UniProt Q86XN8): 48%
- percent_inhibition (UniProt Q86TM6): 19%
